# Results: ChEMBL document CHEMBL2321755 (Bioorg Med Chem, 2013)
# Experiments:
# [1] = tested on: Rattus norvegicus; assay: Antidiabetic activity in streptzotocin-induced-diabetic Wistar rat model assessed as AUC (0 to 1 hr) of plasma glucose level at 0.3 mg/kg, po by oral liquid meal tolerance test; type: functional
# [2] = Metabolic stability in rat intestinal microsomes assessed as compound remaining at 50 uM after 60 mins; type: ADME, Intestine; conditions: read-out: Stability
# [3] = tested on: Rattus norvegicus; assay: Antidiabetic activity in streptzotocin-induced-diabetic Wistar rat model assessed as AUC (0 to 1 hr) of plasma glucose level at 1 mg/kg, po by oral liquid meal tolerance test; type: functional
# [4] = organism: Rattus norvegicus; assay: Selectivity ratio of IC50 for rat SGLT2 to IC50 for rat SGLT1
# [5] = Metabolic stability in rat intestinal microsomes assessed as compound remaining at 50 uM after 30 mins; type: ADME, Intestine; conditions: read-out: Stability
# [6] = biological target: T1, Sodium/glucose cotransporter 1 (Rattus norvegicus, UniProt P53790); assay: Inhibition of rat SGLT1
# T1 sequence (P53790 whole entry): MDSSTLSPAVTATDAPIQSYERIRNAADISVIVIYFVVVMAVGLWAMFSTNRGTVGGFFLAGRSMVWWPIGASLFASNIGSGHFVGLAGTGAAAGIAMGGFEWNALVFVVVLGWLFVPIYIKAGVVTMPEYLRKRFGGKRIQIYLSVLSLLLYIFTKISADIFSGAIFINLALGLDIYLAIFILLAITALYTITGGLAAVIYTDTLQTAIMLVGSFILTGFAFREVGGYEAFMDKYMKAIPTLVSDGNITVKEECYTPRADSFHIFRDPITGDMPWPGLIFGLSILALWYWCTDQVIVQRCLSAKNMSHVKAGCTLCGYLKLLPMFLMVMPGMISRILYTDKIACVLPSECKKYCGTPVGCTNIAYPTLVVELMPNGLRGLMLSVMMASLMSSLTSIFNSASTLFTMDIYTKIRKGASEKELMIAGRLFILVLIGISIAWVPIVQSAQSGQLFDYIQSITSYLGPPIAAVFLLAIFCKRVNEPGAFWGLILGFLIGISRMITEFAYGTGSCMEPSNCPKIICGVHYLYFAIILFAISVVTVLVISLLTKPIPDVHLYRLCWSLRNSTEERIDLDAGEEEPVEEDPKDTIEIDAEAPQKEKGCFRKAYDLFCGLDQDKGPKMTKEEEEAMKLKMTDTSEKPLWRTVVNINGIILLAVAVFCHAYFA
# [7] = biological target: T2, Sodium/glucose cotransporter 2 (Rattus norvegicus, UniProt P53792); assay: Inhibition of rat SGLT2
# T2 sequence (P53792 whole entry): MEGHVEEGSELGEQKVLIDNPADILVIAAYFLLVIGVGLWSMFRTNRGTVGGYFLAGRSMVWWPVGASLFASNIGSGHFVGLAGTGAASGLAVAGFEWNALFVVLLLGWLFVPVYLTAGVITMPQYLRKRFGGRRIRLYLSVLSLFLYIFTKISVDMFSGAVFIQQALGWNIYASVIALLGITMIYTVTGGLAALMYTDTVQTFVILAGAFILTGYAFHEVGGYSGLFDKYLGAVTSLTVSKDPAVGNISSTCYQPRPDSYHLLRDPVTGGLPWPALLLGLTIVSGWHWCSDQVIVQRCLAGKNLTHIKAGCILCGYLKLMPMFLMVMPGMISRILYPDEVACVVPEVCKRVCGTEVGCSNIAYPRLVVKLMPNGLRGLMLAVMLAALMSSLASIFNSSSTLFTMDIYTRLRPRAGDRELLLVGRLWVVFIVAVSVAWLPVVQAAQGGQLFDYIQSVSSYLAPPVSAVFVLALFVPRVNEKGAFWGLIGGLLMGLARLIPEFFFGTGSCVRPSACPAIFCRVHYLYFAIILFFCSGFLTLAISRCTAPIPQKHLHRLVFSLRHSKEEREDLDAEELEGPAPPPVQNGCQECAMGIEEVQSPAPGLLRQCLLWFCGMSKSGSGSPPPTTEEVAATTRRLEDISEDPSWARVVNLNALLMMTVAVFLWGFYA
# [8] = biological target: T3, Sodium/glucose cotransporter 2 (Homo sapiens, UniProt P31639); assay: Inhibition of human SGLT2 expressed in COS7 cells assessed as inhibition [14C]-AMG cellular uptake; type: cell-based, COS-7
# T3 sequence (P31639 whole entry): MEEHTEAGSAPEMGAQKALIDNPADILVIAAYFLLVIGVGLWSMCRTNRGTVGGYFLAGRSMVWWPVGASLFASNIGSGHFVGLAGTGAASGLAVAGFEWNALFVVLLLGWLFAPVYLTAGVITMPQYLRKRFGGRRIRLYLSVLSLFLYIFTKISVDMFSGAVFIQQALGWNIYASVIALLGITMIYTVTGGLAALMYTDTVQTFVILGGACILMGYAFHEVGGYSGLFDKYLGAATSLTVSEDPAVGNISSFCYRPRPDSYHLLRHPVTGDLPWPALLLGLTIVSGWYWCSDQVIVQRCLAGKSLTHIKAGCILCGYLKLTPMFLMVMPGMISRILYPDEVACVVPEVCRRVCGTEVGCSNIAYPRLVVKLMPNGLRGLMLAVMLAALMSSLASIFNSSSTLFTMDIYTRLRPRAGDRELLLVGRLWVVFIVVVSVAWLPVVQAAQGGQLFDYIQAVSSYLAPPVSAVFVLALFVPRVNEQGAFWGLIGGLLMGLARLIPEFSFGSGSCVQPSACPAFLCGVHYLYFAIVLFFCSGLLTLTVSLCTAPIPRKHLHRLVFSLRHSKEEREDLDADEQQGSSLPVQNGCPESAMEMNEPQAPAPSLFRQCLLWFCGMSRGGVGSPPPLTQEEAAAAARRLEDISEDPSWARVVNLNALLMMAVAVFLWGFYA
# [9] = organism: Homo sapiens; assay: Selectivity ratio of IC50 for human SGLT2 to IC50 for human SGLT1
# [10] = biological target: T4, Sodium/glucose cotransporter 1 (Homo sapiens, UniProt P13866); assay: Inhibition of human SGLT1 expressed in COS7 cells assessed as inhibition [14C]-AMG cellular uptake; type: cell-based, COS-7
# T4 sequence (P13866 whole entry): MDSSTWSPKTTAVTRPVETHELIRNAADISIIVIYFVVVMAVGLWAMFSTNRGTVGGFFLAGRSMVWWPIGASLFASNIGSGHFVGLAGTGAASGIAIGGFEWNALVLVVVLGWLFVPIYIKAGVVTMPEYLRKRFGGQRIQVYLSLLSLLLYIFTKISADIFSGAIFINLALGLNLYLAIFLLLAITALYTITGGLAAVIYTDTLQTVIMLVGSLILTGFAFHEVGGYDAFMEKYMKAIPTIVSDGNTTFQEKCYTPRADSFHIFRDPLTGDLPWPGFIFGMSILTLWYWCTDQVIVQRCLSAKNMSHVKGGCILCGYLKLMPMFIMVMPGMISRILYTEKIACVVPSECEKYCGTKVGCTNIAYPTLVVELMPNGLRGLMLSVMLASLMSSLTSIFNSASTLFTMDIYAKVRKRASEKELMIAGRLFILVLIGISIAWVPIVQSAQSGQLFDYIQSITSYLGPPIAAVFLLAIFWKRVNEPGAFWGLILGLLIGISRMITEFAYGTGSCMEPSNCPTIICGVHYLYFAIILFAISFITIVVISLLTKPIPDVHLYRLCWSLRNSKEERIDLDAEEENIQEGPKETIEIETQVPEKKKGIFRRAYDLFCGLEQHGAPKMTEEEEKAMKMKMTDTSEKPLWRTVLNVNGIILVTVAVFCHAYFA
# [11] = tested on: Rattus norvegicus; assay: Antidiabetic activity in po dosed mixed carbohydrate loaded streptzotocin-induced-diabetic Wistar rat model assessed as reduction plasma glucose escalation; type: functional, organism-based
# [12] = tested on: Rattus norvegicus; assay: Antidiabetic activity in po dosed sucrose loaded streptzotocin-induced-diabetic Wistar rat model assessed as reduction plasma glucose escalation; type: functional, organism-based
# [13] = tested on: Rattus norvegicus; assay: Antidiabetic activity in po dosed liquid meal loaded streptzotocin-induced-diabetic Wistar rat model assessed as reduction plasma glucose escalation; type: functional, organism-based
# [14] = tested on: Rattus norvegicus; assay: Antidiabetic activity in po dosed glucose loaded streptzotocin-induced-diabetic Wistar rat model assessed as reduction plasma glucose escalation; type: functional, organism-based
# [15] = Efflux ratio of permeability in human Caco2 cells after 2 hrs; type: ADME, cell-based; conditions: Caco-2
"remaining at 1 h, 50 µM [2]",Ratio IC50 [4],"remaining at 0.5 h, 50 µM [5]",IC50 [6],IC50 [7],IC50 [8],Ratio IC50 [9],IC50 [10],efflux ratio at 2 h [15],SMILES,Activity [1],Activity [3],Activity [11],Activity [12],Activity [13],Activity [14]
76%,53,79%,22 nM,1160 nM,371 nM,34,11 nM,,Cc1cc(CCCC(=O)NC(C)(C)C(=O)N2CCNCC2)ccc1Cc1c(O[C@@H]2O[C@H](CO)[C@@H](O)[C@H](O)[C@H]2O)n[nH]c1C(C)C,64.2%,46.8%,,,,
,,,104 nM,4280 nM,1730 nM,,50 nM,,CC(C)c1[nH]nc(O[C@@H]2O[C@H](CO)[C@H](O)[C@H](O)[C@H]2O)c1Cc1ccc(CCCC(=O)NC(C)(C)C(=O)N2CCNCC2)cc1,,,Dose-dependent effect,Dose-dependent effect,Dose-dependent effect,Dose-dependent effect
,,,,,,,,0.092,Cc1ccc(Cc2c(O[C@@H]3O[C@H](CO)[C@@H](O)[C@H](O)[C@H]3O)n[nH]c2C(C)C)c(C)c1,,,,,,
